Target: P-glycoprotein (P-gp, ABCB1, MDR1) (Homo sapiens, UniProt P08183)
Experiment: inhibition of […]-IAAP photoaffinity labeling of P-gp in crude membranes
Assay type: binding

P-glycoprotein (P-gp, ABCB1, MDR1), sequence (P08183 whole entry): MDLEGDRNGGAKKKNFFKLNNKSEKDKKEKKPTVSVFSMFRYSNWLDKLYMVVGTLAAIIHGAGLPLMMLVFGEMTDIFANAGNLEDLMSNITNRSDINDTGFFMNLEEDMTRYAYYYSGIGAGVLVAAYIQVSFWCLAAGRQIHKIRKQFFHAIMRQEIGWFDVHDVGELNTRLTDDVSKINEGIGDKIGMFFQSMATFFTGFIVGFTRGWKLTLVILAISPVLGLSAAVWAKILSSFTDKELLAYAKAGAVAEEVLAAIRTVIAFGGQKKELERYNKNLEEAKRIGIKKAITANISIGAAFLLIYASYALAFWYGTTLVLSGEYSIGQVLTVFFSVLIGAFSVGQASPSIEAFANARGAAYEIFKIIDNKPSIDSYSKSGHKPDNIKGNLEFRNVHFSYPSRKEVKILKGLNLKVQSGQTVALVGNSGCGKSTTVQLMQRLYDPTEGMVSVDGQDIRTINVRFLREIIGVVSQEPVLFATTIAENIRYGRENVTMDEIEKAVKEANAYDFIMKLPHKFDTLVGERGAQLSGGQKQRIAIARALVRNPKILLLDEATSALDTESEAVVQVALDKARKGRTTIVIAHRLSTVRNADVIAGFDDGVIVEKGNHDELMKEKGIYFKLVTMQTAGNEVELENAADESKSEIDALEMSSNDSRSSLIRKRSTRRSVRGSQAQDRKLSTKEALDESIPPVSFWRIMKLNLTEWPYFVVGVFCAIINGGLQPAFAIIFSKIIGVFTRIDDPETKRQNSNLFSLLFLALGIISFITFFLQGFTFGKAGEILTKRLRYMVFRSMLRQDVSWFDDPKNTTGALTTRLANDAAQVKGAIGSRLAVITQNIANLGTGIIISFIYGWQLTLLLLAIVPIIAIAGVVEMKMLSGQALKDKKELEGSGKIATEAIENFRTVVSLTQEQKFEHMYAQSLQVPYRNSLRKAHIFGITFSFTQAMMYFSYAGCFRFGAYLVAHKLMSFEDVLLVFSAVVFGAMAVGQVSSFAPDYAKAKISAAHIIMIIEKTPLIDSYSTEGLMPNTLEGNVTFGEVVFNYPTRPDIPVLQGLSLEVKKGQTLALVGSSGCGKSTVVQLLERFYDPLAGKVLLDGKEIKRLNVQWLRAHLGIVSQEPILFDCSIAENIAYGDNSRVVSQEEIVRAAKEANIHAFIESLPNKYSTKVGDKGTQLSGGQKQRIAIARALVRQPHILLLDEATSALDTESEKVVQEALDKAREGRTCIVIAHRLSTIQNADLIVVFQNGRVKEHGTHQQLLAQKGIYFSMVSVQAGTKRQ

SMILES: C=C(C)/C=C/C[C@@H](C)[C@H]1CC[C@@]2(C)[C@@H]3[C@@H](O)C=C4[C@@H](CC[C@H](O)C4(C)C)[C@]3(C=O)CC[C@]12C [kuguacin J]
- IC50: 8.3 ± 5.4 µM

From paper PMC3394403 (2011)
